US20220389515A1, “USE OF BIOMARKERS TO PREDICT CLINICAL SENSITIVITY TO 2-(4-CHLOROPHENYL)-N-((2-(2,6-DIOXOPIPERIDIN-3-YL)-1-OXOISOINDOLIN-5-YL)METHYL)-2,2-DIFLUOROACETAMIDE” (priority 2019, published 2022)

Columns and labels:
[1] = molecular target: T1, cereblon to IKZF1 (Homo sapiens, UniProt Q96SW2); assay: Cereblon binding assay with cell extracts (anti-HA immunoprecipitation), IKZF1; conditions: wild-type FLAG-HA-CRBN; compound added directly into the binding assay
T1 construct: expressed in transfected cells; host or cells: 293FT CRBN-/- cells (transient transfection; cell extracts, anti-HA immunoprecipitation)
From the text: (§1) FIG. 3A illustrates FLAG-HA tagged cereblon wild-type (FLAG-HA-CRBN) or Y384A/W386A mutant (FLAG-HA-YWAA) produced in 293FT CRBN−/− cells was used to capture V5 tagged GSPT1 (GSPT1-V5) and V5 tagged IKZF1 (IKZF1-V5) transiently expressed in 293FT CRBN−/− cells. […] FIG. 3B illustrates the surface representation of GSPT1 in complex with cereblon, DDB1 and Compound D, with DDB1 shown in purple, cereblon in blue, and GSPT1 in orange. The position of Compound D is shown with a white arrow. FIG. 3C illustrates the Fo-Fc omit electron density (green mesh) for Compound D (yellow sticks) contoured at 3.06. […] Hydrogen bond interactions between cereblon and the GPST1 β-hairpin are shown as yellow dashes. FIG. 3E illustrates details of the binding interface between cereblon and GSPT1. Compound D is represented as yellow sticks. Predicted polar interactions between Compound D and cereblon are shown as yellow dashes. FIG. 3F illustrates the immunoblot analysis of U937 parental cells or cells stably expressing HA-GSPT1-G575N. Cells were treated with DMSO or Compound D at the indicated concentrations. FIGS. 3G and 311 illustrate the immunoblot analysis (left panel) and cell proliferation (right panel) of MOLM-13 (FIG. 3G) and OCI-AML2 (FIG. 311) parental cells and cells stably expressing HA tagged GSPT1-G575N. Cells were treated with DMSO or Compound D at indicated concentrations.

[2] = tested on: U937, OCI-AML2 and MOLM-13; assay: Cell proliferation of parental, CRBN-ablated and GSPT1-G575N expressing AML cells; assay type: cell-based, human
Description: FIG. 2A illustrates the volcano plot of differentially abundant proteins in response to Compound D treatment relative to the DMSO control. KG1 cells were treated with DMSO or 100 nM Compound D for 4 hours and subjected to TMT proteomics analysis. The X-axis denotes the log 2-fold change of Compound D versus the DMSO control for each protein. P-values were corrected for multiple hypothesis testing using the Benjamini-Hoschberg method to arrive at an adjusted-P-value (adj-P, also known as a false discovery rate). The y-axis denotes the −log 10 (adj-P) values indicating statistical significance such that proteins lying above the dotted red line are statistically significant findings with adjusted P-values<0.05. FIG. 2B illustrates the immunoblot analysis of KG1 and U937 cells treated with DMSO or Compound D for 4 hours. Where indicated, cells were pretreated with Bortezomib or MLN4924 for 30 minutes. […]
For cell proliferation assays, human cancer cell lines cultured in the growth medium recommended by the vendor (as described above) were seeded into black 384-well plates containing DMSO or test compounds. […] After 72 hours, cell proliferation was assessed using the CTG assay according to the manufacturer's instructions. […]

[3] = molecular target: T2, HA-tagged GSPT1 and endogenous cereblon (Homo sapiens, UniProt P15170+Q96SW2); assay: Anti-HA immunoprecipitation of HA-tagged GSPT1 with endogenous cereblon in U937-Cas9 cells; assay type: cell-based; conditions: with MLN4924
T2 construct: expressed in transfected cells; host or cells: U937-Cas9 cells stably expressing HA-tagged GSPT1 (cereblon endogenous); cells treated with MLN4924 and Compound D, anti-HA immunoprecipitation

[4] = molecular target: T3, cereblon to GSPT1 (Homo sapiens, UniProt P15170+Q96SW2); assay: Cereblon binding assay with cell extracts (anti-HA immunoprecipitation), GSPT1; conditions: wild-type FLAG-HA-CRBN; compound added directly into the binding assay
T3 construct: expressed in transfected cells; host or cells: 293FT CRBN-/- cells (transient transfection; cell extracts, anti-HA immunoprecipitation)
From the text: as §1

[5] = molecular target: T4, cereblon to GSPT1 (Homo sapiens, UniProt P15170+Q96SW2, W386A/Y384A); assay: as above; conditions: FLAG-HA-YWAA mutant
T4 construct: expressed in transfected cells; host or cells: 293FT CRBN-/- cells (transient transfection; cell extracts, anti-HA immunoprecipitation)
From the text: as §1

T2 sequence (P15170 1-637 isoform P15170-3): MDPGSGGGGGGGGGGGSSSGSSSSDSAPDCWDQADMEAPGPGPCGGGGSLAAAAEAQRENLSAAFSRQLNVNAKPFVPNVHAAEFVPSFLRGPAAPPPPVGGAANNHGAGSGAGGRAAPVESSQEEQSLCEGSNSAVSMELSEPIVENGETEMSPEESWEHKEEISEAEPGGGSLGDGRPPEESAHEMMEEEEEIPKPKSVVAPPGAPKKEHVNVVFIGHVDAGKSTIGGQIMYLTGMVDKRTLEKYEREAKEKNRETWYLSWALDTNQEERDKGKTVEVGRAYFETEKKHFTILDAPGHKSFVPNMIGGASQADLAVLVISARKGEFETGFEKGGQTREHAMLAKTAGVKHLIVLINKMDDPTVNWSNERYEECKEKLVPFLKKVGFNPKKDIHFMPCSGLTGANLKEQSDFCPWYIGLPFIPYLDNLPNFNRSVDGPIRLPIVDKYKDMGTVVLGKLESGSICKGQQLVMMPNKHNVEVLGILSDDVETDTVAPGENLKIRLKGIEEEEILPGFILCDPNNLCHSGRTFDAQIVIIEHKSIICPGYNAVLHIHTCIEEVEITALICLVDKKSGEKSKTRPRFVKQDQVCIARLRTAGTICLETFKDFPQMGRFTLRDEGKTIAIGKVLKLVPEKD
T2 sequence (Q96SW2 whole entry): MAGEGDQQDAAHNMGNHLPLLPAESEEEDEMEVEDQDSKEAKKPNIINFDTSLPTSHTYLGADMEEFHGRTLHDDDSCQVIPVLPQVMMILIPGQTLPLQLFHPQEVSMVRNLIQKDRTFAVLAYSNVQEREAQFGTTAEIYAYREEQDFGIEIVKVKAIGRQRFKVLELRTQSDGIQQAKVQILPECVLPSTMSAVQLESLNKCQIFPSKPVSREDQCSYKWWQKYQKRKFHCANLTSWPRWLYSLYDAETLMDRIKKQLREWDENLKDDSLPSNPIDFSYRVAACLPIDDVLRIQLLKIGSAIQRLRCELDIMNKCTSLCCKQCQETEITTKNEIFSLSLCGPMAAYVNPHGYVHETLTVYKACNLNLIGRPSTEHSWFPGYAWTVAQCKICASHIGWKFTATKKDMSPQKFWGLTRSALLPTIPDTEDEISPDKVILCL
T2 sequence (Q16531 whole entry partner): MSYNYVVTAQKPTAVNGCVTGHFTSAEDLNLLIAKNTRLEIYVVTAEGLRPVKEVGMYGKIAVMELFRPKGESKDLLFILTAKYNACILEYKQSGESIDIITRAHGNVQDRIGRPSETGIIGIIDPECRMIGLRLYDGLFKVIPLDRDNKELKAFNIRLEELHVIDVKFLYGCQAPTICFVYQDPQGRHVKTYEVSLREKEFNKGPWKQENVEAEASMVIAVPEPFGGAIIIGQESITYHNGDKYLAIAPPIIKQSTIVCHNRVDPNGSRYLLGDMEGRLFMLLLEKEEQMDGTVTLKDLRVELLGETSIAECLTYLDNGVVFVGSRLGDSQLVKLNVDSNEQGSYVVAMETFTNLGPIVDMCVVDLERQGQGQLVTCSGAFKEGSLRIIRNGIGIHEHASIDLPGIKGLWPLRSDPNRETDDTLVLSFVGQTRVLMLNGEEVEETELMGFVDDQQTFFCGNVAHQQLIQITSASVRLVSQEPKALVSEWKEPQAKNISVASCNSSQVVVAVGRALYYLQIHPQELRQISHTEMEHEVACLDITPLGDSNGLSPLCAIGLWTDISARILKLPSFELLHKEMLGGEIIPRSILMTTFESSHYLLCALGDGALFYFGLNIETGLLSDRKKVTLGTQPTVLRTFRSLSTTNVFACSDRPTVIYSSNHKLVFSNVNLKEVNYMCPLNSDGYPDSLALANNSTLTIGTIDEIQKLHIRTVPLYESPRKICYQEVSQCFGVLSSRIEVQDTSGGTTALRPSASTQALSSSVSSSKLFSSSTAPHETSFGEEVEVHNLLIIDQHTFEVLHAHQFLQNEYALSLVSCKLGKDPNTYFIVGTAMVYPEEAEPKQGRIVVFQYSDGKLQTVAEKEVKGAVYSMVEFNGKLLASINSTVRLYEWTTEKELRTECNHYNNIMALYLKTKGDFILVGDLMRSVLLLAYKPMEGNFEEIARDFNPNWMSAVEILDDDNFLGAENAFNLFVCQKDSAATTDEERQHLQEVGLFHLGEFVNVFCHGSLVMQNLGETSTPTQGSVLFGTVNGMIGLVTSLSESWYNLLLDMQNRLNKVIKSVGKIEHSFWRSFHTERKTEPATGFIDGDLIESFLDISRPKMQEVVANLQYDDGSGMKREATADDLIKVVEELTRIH
T1 sequence (Q96SW2 whole entry): as the sequence (Q96SW2 whole entry) above
T3 sequence (Q96SW2 whole entry): as above
T3 sequence (P15170 1-637 isoform P15170-3): as the sequence (P15170 1-637 isoform P15170-3) above
T4 sequence (Q96SW2 whole entry Y384A/W386A): as the sequence (Q96SW2 whole entry) above, with Y384A, W386A counted along it
T4 sequence (P15170 1-637 isoform P15170-3, stated change not applied): as the sequence (P15170 1-637 isoform P15170-3) above

With `O=C1CCC(N2Cc3cc(CNC(=O)C(F)(F)c4ccc(Cl)cc4)ccc3C2=O)C(=O)N1` (stereo not drawn) [Compound D, 2-(4-chlorophenyl)-N-((2-(2,6-dioxopiperidin-3-yl)-1-oxoisoindolin-5-yl)methyl)-2,2-difluoroacetamide] the “binding of cereblon to IKZF1” value [1] was “not IKZF1”, the “anti-proliferative effect after ablation of CRBN” value ([2]; CRBN knockout U937, OCI-AML2, MOLM-13) was “completely abolished the anti-proliferative effect” and the “antiproliferative response in cells overexpressing GSPT1-G575N” value ([2]; U937, OCI-AML2, MOLM-13, GSPT1 stabilization) was “completely inhibited the response to Compound D”. The “Compound D-induced interaction of HA-tagged GSPT1 with endogenous cereblon after TSC1 loss” value [3] was “significantly reduced the interaction between HA-tagged GSPT1 and endogenous cereblon induced by Compound D”, the “binding of cereblon to GSPT1” value [4] was “promoted the binding of cereblon to GSPT1” and the “binding of cereblon mutant Y384A and W386A to GSPT1” value [5] was “completely abolished the binding of cereblon”.
